In brackets after ≈: the same amount, converted by molar mass. Read-outs that look alike come from different tables or passages of the source.
Legend:
[1] = system: Asexual parasites of P. falciparum strain 3D7; experiment: In vitro drug activity on asexual parasites (SYBR Green assay); assay type: cell-based; conditions: Plasmodium falciparum, P. falciparum 3D7 asexual stage, 72 h, read-out: Asexual EC50
How it was run: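 3D7 asexual cultures at 0.5% parasitemia and 2% hematocrit were exposed to drug (DMSO <0.5%) for 72 h under standard culture conditions, in duplicate with no-drug and RBC-only controls. After freeze-thaw lysis, SYBR Green I lysis buffer was added for 30 min at room temperature; fluorescence was read at 490 nm excitation/520 nm emission.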

[2] = Microsomal stability (rat); assay type: in vitro ADME; conditions: rat microsomes
[3] = Solubility pH 7.4; assay type: physicochemical; conditions: aqueous buffer
[4] = PAMPA permeability; assay type: in vitro ADME
[5] = Table 2, read-out: Microsomal Stability (rat) T1/2
[6] = Table 3, read-out: Microsomal Stability (rat) T1/2
[7] = Table 1, read-out: Microsomal Stability (rat) T1/2

| EC50 ([1]; Table 3) | half-life [2, 6] | solubility ([3]; Table 3) | Papp ([4]; Table 3) | EC50 ([1]; Table 1) | half-life [2, 7] | solubility ([3]; Table 1) | Papp ([4]; Table 1) | Structure (SMILES) | other results |
| --- | --- | --- | --- | --- | --- | --- | --- | --- | --- |
| 1050 nM | > 30 min | 34.5 µg/mL (≈ 90 µM) | 684 ×10⁻⁶ cm/s |  |  |  |  | COc1ccc(-c2ccc3ncc4c(c3c2)n(-c2cncnc2)c(=N)n4C)cn1 |  |
|  |  |  |  | 11.9 nM | > 30 min | 3.7 µg/mL (≈ 8.6 µM) | 34.1 ×10⁻⁶ cm/s | Cc1ccc(C#N)cc1-n1/c(=N/C#N)n(C)c2cnc3ccc(-c4ccc(N)nc4)cc3c21 [Compound 4, (E)-N-(8-(6-aminopyridin-3-yl)-1-(5-cyano-2-methylphenyl)-3-methyl-1,3-dihydro-2H-imidazo[4,5-c]quinolin-2-ylidene)cyanamide] |  |
|  |  |  |  | 154 nM | > 30 min | 42.5 µg/mL (≈ 108 µM) | 219 ×10⁻⁶ cm/s | Cc1ccc(C#N)cc1-n1c(=N)n(C)c2cnc3ccc(-c4ccnn4C)cc3c21 [Compound 5, 3-(2-imino-3-methyl-8-(1-methyl-1H-pyrazol-5-yl)-2,3-dihydro-1H-imidazo[4,5-c]quinolin-1-yl)-4-methylbenzonitrile] |  |
|  |  |  |  | 279 nM | > 30 min | 9.6 µg/mL (≈ 21.9 µM) | 921 ×10⁻⁶ cm/s | C/N=c1\n(C)c2cnc3ccc(-c4ccc(Cl)cc4)cc3c2n1-c1cc(C#N)ccc1C [Compound 6, (E)-3-(8-(4-chlorophenyl)-3-methyl-2-(methylimino)-2,3-dihydro-1H-imidazo[4,5-c]quinolin-1-yl)-4-methylbenzonitrile] |  |
|  |  |  |  | 59.8 nM | > 30 min | < 1 µg/mL | 1190 ×10⁻⁶ cm/s | Cc1ccc(C#N)cc1-n1/c(=N/C#N)n(C)c2cnc3ccc(-c4ccc(Cl)cc4)cc3c21 [Compound 8, (E)-N-(8-(4-chlorophenyl)-1-(5-cyano-2-methylphenyl)-3-methyl-1,3-dihydro-2H-imidazo[4,5-c]quinolin-2-ylidene)cyanamide] |  |
|  |  |  |  | 38.5 nM | > 30 min | < 1 µg/mL | 526 ×10⁻⁶ cm/s | CCC(=O)/N=c1\n(C)c2cnc3ccc(-c4ccc(Cl)cc4)cc3c2n1-c1cc(C#N)ccc1C [Compound 9, (E)-N-(8-(4-chlorophenyl)-1-(5-cyano-2-methylphenyl)-3-methyl-1,3-dihydro-2H-imidazo[4,5-c]quinolin-2-ylidene)propionamide] |  |
|  |  |  |  | 48.2 nM | > 30 min | 3.1 µg/mL (≈ 7.56 µM) | 1000 ×10⁻⁶ cm/s | Cn1c(=N)n(-c2cccc(C#N)c2)c2c3cc(-c4ccc(Cl)cc4)ccc3ncc21 [Compound 11, 3-(8-(4-chlorophenyl)-2-imino-3-methyl-2,3-dihydro-1H-imidazo[4,5-c]quinolin-1-yl)benzonitrile] |  |
|  |  |  |  | 64.4 nM | > 30 min | 3.9 µg/mL (≈ 9.57 µM) | 1030 ×10⁻⁶ cm/s | Cc1ccc(C#N)cc1-n1c(=N)n(C)c2cnc3ccc(-c4ccc(F)cc4)cc3c21 [Compound 12, 3-(8-(4-fluorophenyl)-2-imino-3-methyl-2,3-dihydro-1H-imidazo[4,5-c]quinolin-1-yl)-4-methylbenzonitrile] |  |
|  |  |  |  | 564 nM | 16.9 min | < 1 µg/mL | 247 ×10⁻⁶ cm/s | CSc1ccc(C#N)cc1-n1/c(=N/C#N)n(C)c2cnc3ccc(-c4ccc(Cl)cc4)cc3c21 [Compound 18, (E)-N-(8-(4-chlorophenyl)-1-(5-cyano-2-(methylthio)phenyl)-3-methyl-1,3-dihydro-2H-imidazo[4,5-c]quinolin-2-ylidene)cyanamide] |  |
|  |  |  |  | 317 nM | > 30 min | 4.4 µg/mL (≈ 8.63 µM) | 1560 ×10⁻⁶ cm/s | Cc1nc(N2CCOCC2)c(C#N)cc1-n1c(=N)n(C)c2cnc3ccc(-c4ccc(Cl)cc4)cc3c21 [Compound 21, 5-(8-(4-chlorophenyl)-2-imino-3-methyl-2,3-dihydro-H-imidazo[4,5-c]quinolin-1-yl)-6-methyl-2-morpholinonicotinonitrile] |  |
|  |  |  |  | 63.9 nM | > 30 min | < 1 µg/mL | 340 ×10⁻⁶ cm/s | Cc1cc(N2CCOCC2)c(C#N)cc1-n1c(=N)n(C)c2cnc3ccc(-c4ccc(Cl)cc4)cc3c21 [Compound 23, 5-(8-(4-chlorophenyl)-2-imino-3-methyl-2,3-dihydro-1H-imidazo[4,5-c]quinolin-1-yl)-4-methyl-2-morpholinobenzonitrile] |  |
|  |  |  |  | 980 nM | > 30 min | > 44 µg/mL | 405 ×10⁻⁶ cm/s | Cc1ccc(C#N)cc1-n1c(=N)n(C)c2cnc3ccc(-c4cccc(CN(C)C)c4)cc3c21 [Compound 24, 3-(8-(3-((dimethylamino)methyl)phenyl)-2-imino-3-methyl-2,3-dihydro-1H-imidazo[4,5-c]quinolin-1-yl)-4-methylbenzonitrile] |  |
|  |  |  |  | 118 nM | > 30 min | > 41 µg/mL | 1430 ×10⁻⁶ cm/s | Cc1ccc(C#N)cc1-n1c(=N)n(C)c2cnc3ccc(-c4cccc(C#N)c4)cc3c21 [Compound 25, 3-(8-(3-cyanophenyl)-2-imino-3-methyl-2,3-dihydro-1H-imidazo[4,5-c]quinolin-1-yl)-4-methylbenzonitrile] |  |
|  |  |  |  | 529 nM | > 30 min | < 1 µg/mL | 1670 ×10⁻⁶ cm/s | Cn1c(=N)n(-c2cccc(C(F)(F)F)c2)c2c3cc(-c4ccc(Cl)cc4)ccc3ncc21 [Compound 26, 8-(4-chlorophenyl)-3-methyl-1-(3-(trifluoromethyl)phenyl)-1,3-dihydro-2H-imidazo[4,5-c]quinolin-2-imine] |  |
|  |  |  |  | 138 nM | > 30 min | < 1 µg/mL | 1610 ×10⁻⁶ cm/s | Cc1ccc(C(F)(F)F)cc1-n1c(=N)n(C)c2cnc3ccc(-c4ccc(Cl)cc4)cc3c21 [Compound 27, 8-(4-chlorophenyl)-3-methyl-1-(2-methyl-5-(trifluoromethyl)phenyl)-1,3-dihydro-2H-imidazo[4,5-c]quinolin-2-imine] |  |
|  |  |  |  | 186 nM | > 30 min | < 1 µg/mL | 226 ×10⁻⁶ cm/s | Cn1c(=N)n(-c2cccc(Cl)c2)c2c3cc(-c4ccc(Cl)cc4)ccc3ncc21 [Compound 28, 1-(3-chlorophenyl)-8-(4-chlorophenyl)-3-methyl-1,3-dihydro-2H-imidazo[4,5-c]quinolin-2-imine] |  |
|  |  |  |  | 136 nM | > 30 min | < 1 µg/mL | 1680 ×10⁻⁶ cm/s | Cc1ccc(Cl)cc1-n1c(=N)n(C)c2cnc3ccc(-c4ccc(Cl)cc4)cc3c21 [Compound 29, 1-(5-chloro-2-methylphenyl)-8-(4-chlorophenyl)-3-methyl-1,3-dihydro-2H-imdazo[4,5-c]quinolin-2-imine] |  |
|  |  |  |  | 60.3 nM | > 30 min | 7.3 µg/mL (≈ 16.3 µM) | 1210 ×10⁻⁶ cm/s | Cc1ccc(C#N)cc1-n1c(=N)n(C)c2cnc3ccc(-c4ccc(Cl)c(C#N)c4)cc3c21 [Compound 30, 2-chloro-5-(1-(5-cyano-2-methylphenyl)-2-imino-3-methyl-2,3-dihydro-1H-imidazo[4,5-c]quinolin-8-yl)benzonitrile] |  |

Continued, molecule first:

| Structure (SMILES) | EC50 ([1]; Table 3) | half-life [2, 6] | solubility ([3]; Table 3) | Papp ([4]; Table 3) | EC50 ([1]; Table 1) | half-life [2, 7] | solubility ([3]; Table 1) | Papp ([4]; Table 1) | other results |
| --- | --- | --- | --- | --- | --- | --- | --- | --- | --- |
| CN(C)CCN1CCN(C(=O)c2ccc(-n3/c(=N\C#N)ccc4cnc5ccc(-c6ccc(Cl)cc6)cc5c43)cc2)CC1 |  |  |  |  |  |  |  |  | EC50 ([1]; Table 2): 45.4 nM; half-life [2, 5]: > 30 min; solubility ([3]; Table 2): 3.2 µg/mL (≈ 5.42 µM); Papp ([4]; Table 2): 8.8 ×10⁻⁶ cm/s |
| C/N=c1\ccc2cnc3ccc(-c4ccc(Cl)cc4)cc3c2n1-c1ccc(C(=O)NC2CC2)cc1 |  |  |  |  |  |  |  |  | EC50 ([1]; Table 2): 1210 nM; half-life [2, 5]: 17.4 min; solubility ([3]; Table 2): < 1 µg/mL; Papp ([4]; Table 2): 130 ×10⁻⁶ cm/s |
| N=c1ccc2cnc3ccc(-c4ccc(N)nc4)cc3c2n1-c1cccc(C(F)(F)F)c1 |  |  |  |  |  |  |  |  | EC50 ([1]; Table 2): 21.8 nM; half-life [2, 5]: > 30 min; solubility ([3]; Table 2): > 64 µg/mL; Papp ([4]; Table 2): 228 ×10⁻⁶ cm/s |
| Cn1c(=N)n(-c2cncnc2)c2c3cc(-c4ccc(Cl)cc4)ccc3ncc21 | 220 nM | > 30 min | 16.3 µg/mL (≈ 42.1 µM) | 397 ×10⁻⁶ cm/s |  |  |  |  |  |
| Cn1c(=N)n(-c2cncnc2)c2c3cc(-c4ccc(F)cc4)ccc3ncc21 | 194 nM | > 30 min | 2 µg/mL (≈ 5.4 µM) | 26.2 ×10⁻⁶ cm/s |  |  |  |  |  |
| Cn1c(=N)n(-c2cncnc2)c2c3cc(-c4ccc(N)nc4)ccc3ncc21 | 143 nM | > 30 min | 33.9 µg/mL (≈ 92 µM) | 12.9 ×10⁻⁶ cm/s |  |  |  |  |  |
| Cc1ccc(-c2ccc3ncc4c(c3c2)n(-c2cncnc2)c(=N)n4C)cc1 | 230 nM | > 30 min | 18.5 µg/mL (≈ 50.5 µM) | 32.3 ×10⁻⁶ cm/s |  |  |  |  |  |
| Cc1ncncc1-n1c(=N)n(C)c2cnc3ccc(-c4ccc(Cl)cc4)cc3c21 | 721 nM | > 30 min | 24.7 µg/mL (≈ 61.6 µM) | 1290 ×10⁻⁶ cm/s |  |  |  |  |  |
| Cc1ncncc1-n1c(=N)n(C)c2cnc3ccc(-c4ccc(F)cc4)cc3c21 | 538 nM | > 30 min | 6.2 µg/mL (≈ 16.1 µM) | 1180 ×10⁻⁶ cm/s |  |  |  |  |  |
| Cc1ccc(-c2ccc3ncc4c(c3c2)n(-c2cncnc2C)c(=N)n4C)cc1 | 1150 nM | > 30 min | > 38 µg/mL | 1240 ×10⁻⁶ cm/s |  |  |  |  |  |
| Cc1ncncc1-n1c(=N)n(C)c2cnc3ccc(-c4cccc(F)c4)cc3c21 | 1240 nM | > 30 min | > 38 µg/mL | 1100 ×10⁻⁶ cm/s |  |  |  |  |  |
| CC(=O)N1CCN(c2ncc(-n3c(=N)n(C)c4cnc5ccc(-c6ccc(Cl)cc6)cc5c43)cn2)CC1 | 391 nM | > 30 min | 22.9 µg/mL (≈ 44.6 µM) | 292 ×10⁻⁶ cm/s |  |  |  |  |  |
| COc1ccc(-c2ccc3ncc4c(c3c2)n(-c2cncnc2)c(=N)n4C)cc1OC | 17 nM | > 30 min | > 61 µg/mL | 510 ×10⁻⁶ cm/s |  |  |  |  |  |
| Cn1c(=N)n(-c2cncnc2)c2c3cc(-c4ccc(C(F)(F)F)nc4)ccc3ncc21 | 560 nM | > 30 min | 31 µg/mL (≈ 73.6 µM) | 541 ×10⁻⁶ cm/s |  |  |  |  |  |
| Cc1ccc(-c2ccc3ncc4c(c3c2)n(-c2cncnc2)c(=N)n4C)cn1 | 190 nM | > 30 min | > 54 µg/mL | 136 ×10⁻⁶ cm/s |  |  |  |  |  |

Reference: US20210188843A1, “QUINOLINE COMPOUNDS AND THEIR PREPARATION AND USE AS ANTIMALARIAL AGENTS” (The United States of America,as represented by the …, priority 2018, published 2021)
